Source: US20060116390A1, “Hepatitis c virus inhibitors” (priority 2003, published 2006)
Structures can show the parent of a compound that is named as a salt. Where two headings read alike, the source gives them in different places.

Test system: HCV proteins in Rep5.1 cells (replicon cell line)
Experiment: Inhibitory activity of HCV: cell-based ELISA in replicon cell line Rep5.1 (decrease of HCV proteins)
Parameters: species or system hepatitis C virus
Outline: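 HCV protein loss was quantified by ELISA on methanol/acetone-fixed cells 72 h after drug addition, probing with selected HCV-positive human plasma, and IC50 was defined as 50% reduction relative to untreated wells. The cells were Rep5.1 replicon cells cultured in DMEM-10 with 500 μg/ml G418, plated at 5000 per well and dosed with serial dilutions after 4 h attachment.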

[1] = Hepatitis C virus, 72 h, Rep5.1 cells, 72 hours with drug, concentration at which 50% of HCV proteins was decreased, Table 2, read-out: IC50
[2] = Hepatitis C virus, 72 h, Rep5.1 cells, 72 hours with drug, decrease of HCV proteins measured by HCV antibody, Table 1, read-out: Level (IC50 values classified)

| Compound | IC50 [1] [µM] | IC50 [2] [µM] | IC50 (Rep5.1 cells, 72 hours with drug, concentration at which 50% of HCV proteins was decreased, Table 2, read-out: IC50) [µM] | IC50 (Hepatitis C virus, 72 h) [µM] | IC50 (Hepatitis C virus, 72 h, read-out: Level (IC50 values classified)) [µM] |
| --- | --- | --- | --- | --- | --- |
| CC1=C(C(=O)OCC(Br)=CBr)CNC(=S)N1 [Compound 193, 6-methyl-2-thioxo-1,2,3,4-tetrahydro-pyrimidine-5-carboxylic acid 2,3-dibromo-allyl ester] | 1 | < 1 |  |  |  |
| CC1=C(C(=O)OCCc2csc([N+](=O)[O-])c2)C(CF)NC(=S)N1 (centres unmarked) [28′, 4-fluoromethyl-6-methyl-2-thioxo-1,2,3,4-tetrahydro-pyrimidine-5-carboxylic acid 2-(5-nitro-thiophen-3-yl)-ethyl ester] | 72 | > 20 |  |  |  |
| COc1ccc(COC(=O)C2=C(C)NC(=S)NC2)cc1C [Compound 176, 6-methyl-2-thioxo-1,2,3,4-tetrahydro-pyrimidine-5-carboxylic acid 4-methoxy-3-methyl-benzyl ester] | 2.7 | 1 to 10 |  |  |  |
| CSCCCOC(=O)C1=C(C)NC(=S)NC1CO (centres unmarked) [29″, 4-hydroxymethyl-6-methyl-2-thioxo-1,2,3,4-tetrahydro-pyrimidine-5-carboxylic acid 3-methylsulfanyl-propyl ester] | > 100 | > 20 |  |  |  |
| O=C(OCc1ccccc1)C1=C(C(=O)OCc2ccccc2)NC(=S)NC1 [Compound 87, 2-thioxo-1,2,3,6-tetrahydro-pyrimidine-4,5-dicarboxylic acid dibenzyl ester] | 56 | > 20 |  |  |  |
| CC1=C(C(=O)OCCc2ccsc2)C(c2cnc[nH]2)NC(=S)N1 (centres unmarked) [50′, 4-(3H-imidazol-4-yl)-6-methyl-2-thioxo-1,2,3,4-tetrahydro-pyrimidine-5-carboxylic acid 2-thiophen-3-yl-ethyl ester] | > 100 | > 20 |  |  |  |
| CC1=C(C(=O)OCCC[S+]([O-])c2nc3ccccc3o2)C(CF)NC(=S)N1 (centres unmarked) [49′, 4-fluoromethyl-6-methyl-2-thioxo-1,2,3,4-tetrahydro-pyrimidine-5-carboxylic acid 3-(benzoxazol-2-ylsulfinyl)-propyl ester] | 8 | 1 to 10 |  |  |  |
| CCc1ccc(COC(=O)C2=C(C)NC(=S)NC2)cc1 [Compound 152, 6-methyl-2-thioxo-1,2,3,4-tetrahydro-pyrimidine-5-carboxylic acid 4-ethyl-benzyl ester] | 0.5 | < 1 |  |  |  |
| CC1=C(C(=O)OCc2ccc(-c3cc(C(F)(F)F)n(C)n3)s2)CNC(=S)N1 [Compound 222, 6-methyl-2-thioxo-1,2,3,4-tetrahydro-pyrimidine-5-carboxylic acid 5-(1-methyl-5-trifluoromethyl-1H-pyrazol-3-yl)-thiophen-2-ylmethyl ester] | < 0.4 | < 1 |  |  |  |
| CCOc1ccc(CCOC(=O)C2=C(C)NC(=S)NC2CO)cc1 (centres unmarked) [60″, 4-hydroxymethyl-6-methyl-2-thioxo-1,2,3,4-tetrahydro-pyrimidine-5-carboxylic acid 2-(4-ethoxy-phenyl)-ethyl ester] | 2.5 | 1 to 10 |  |  |  |
| CC1=C(C(=O)OCc2ccc([N+](=O)[O-])c(C)c2)CNC(=S)N1 [Compound 135, 6-methyl-2-thioxo-1,2,3,4-tetrahydro-pyrimidine-5-carboxylic acid 3-methyl-4-nitro-benzyl ester] | 0.9 | < 1 |  |  |  |
| CC1=C(C(=O)OCc2cc(Cl)ccc2[N+](=O)[O-])C(CO)NC(=S)N1 (centres unmarked) [47″, 4-hydroxymethyl-6-methyl-2-thioxo-1,2,3,4-tetrahydro-pyrimidine-5-carboxylic acid 5-chloro-2-nitro-benzyl ester] | > 100 | > 20 |  |  |  |
| CC1=C(C(=O)OCCCc2ccco2)CNC(=S)N1 [Compound 250, 6-methyl-2-thioxo-1,2,3,4-tetrahydro-pyrimidine-5-carboxylic acid 3-furan-2-yl-propyl ester] | 0.4 | < 1 |  |  |  |
| CC1=C(C(=O)OCc2ccccn2)CNC(=S)N1 [Compound 154, 6-methyl-2-thioxo-1,2,3,4-tetrahydro-pyrimidine-5-carboxylic acid pyridin-2-ylmethyl ester] | > 100 | > 20 |  |  |  |
| CCOC(=O)OCC1NC(=S)NC(C)=C1C(=O)OCCc1cccc(Cl)c1 (centres unmarked) [49″, 4-ethoxycarbonyloxymethyl-6-methyl-2-thioxo-1,2,3,4-tetrahydro-pyrimidine-5-carboxylic acid 2-(3-chloro-phenyl)-ethyl ester] | 3 | 1 to 10 |  |  |  |
| CC1=C(C(=O)OCCC2CCCC2)C(CO)NC(=S)N1 (centres unmarked) [36″, 4-hydroxymethyl-6-methyl-2-thioxo-1,2,3,4-tetrahydro-pyrimidine-5-carboxylic acid 2-cyclopentyl-ethyl ester] | 3 | 1 to 10 |  |  |  |
| CC1=C(C(=O)OC2CCCC2)CNC(=S)N1 [Compound 67, 6-methyl-2-thioxo-1,2,3,4-tetrahydro-pyrimidine-5-carboxylic acid cyclopentyl ester] | 6 | 1 to 10 |  |  |  |

| Compound | IC50 [1] [µM] | IC50 [2] [µM] | IC50 (Rep5.1 cells, 72 hours with drug, concentration at which 50% of HCV proteins was decreased, Table 2, read-out: IC50) [µM] | IC50 (Hepatitis C virus, 72 h) [µM] | IC50 (Hepatitis C virus, 72 h, read-out: Level (IC50 values classified)) [µM] |
| --- | --- | --- | --- | --- | --- |
| CC1=C(C(=O)OCC(F)(F)c2ccsc2)CNC(=S)N1 [71′, 6-methyl-2-thioxo-1,2,3,4-tetrahydro-pyrimidine-5-carboxylic acid 2,2-difluoro-2-thiophen-3-yl-ethyl ester] | 0.6 | < 1 |  |  |  |
| COc1ccc(Cl)cc1COC(=O)C1=C(C)NC(=S)NC1 [Compound 132, 6-methyl-2-thioxo-1,2,3,4-tetrahydro-pyrimidine-5-carboxylic acid 5-chloro-2-methoxy-benzyl ester] | 0.4 | < 1 |  |  |  |
| CC1=C(C(=O)OCc2ccc(C)cc2C)CNC(=S)N1 [Compound 122, 6-methyl-2-thioxo-1,2,3,4-tetrahydro-pyrimidine-5-carboxylic acid 2,4-dimethyl-benzyl ester] | 0.8 | < 1 |  |  |  |
| CC1=C(C(=O)OCc2ccc(Br)cc2)CNC(=S)N1 [Compound 60, 6-methyl-2-thioxo-1,2,3,4-tetrahydro-pyrimidine-5-carboxylic acid 4-bromo-benzyl ester] | < 0.5 | < 1 |  |  |  |
| COc1ccc(COC(=O)C2=C(C)NC(=S)NC2)cc1Br [Compound 141, 6-methyl-2-thioxo-1,2,3,4-tetrahydro-pyrimidine-5-carboxylic acid 3-bromo-4-methoxy-benzyl ester] | 0.7 | < 1 |  |  |  |
| CC1=C(C(=O)OCCc2sccc2C)CNC(=S)N1 [Compound 257, 6-methyl-2-thioxo-1,2,3,4-tetrahydro-pyrimidine-5-carboxylic acid 2-(3-methyl-thiophen-2-yl)-ethyl ester] | < 0.4 | < 1 |  |  |  |
| C=CCOCC#CCOC(=O)C1=C(C)NC(=S)NC1 [Compound 245, 6-methyl-2-thioxo-1,2,3,4-tetrahydro-pyrimidine-5-carboxylic acid 4-allyloxy-but-2-inyl ester] |  |  | 2.7 |  |  |
| CC1=C(C(=O)OC(c2ccccc2)c2ccccc2C)CNC(=S)N1 (centres unmarked) [Compound 57, 6-methyl-2-thioxo-1,2,3,4-tetrahydro-pyrimidine-5-carboxylic acid phenyl-o-tolyl-methyl ester] | 3.5 | 1 to 10 |  |  |  |
| CC1=C(C(=O)OCc2cccc(OCc3ccccc3)c2)CNC(=S)N1 [Compound 50, 6-methyl-2-thioxo-1,2,3,4-tetrahydro-pyrimidine-5-carboxylic acid 3-benzyloxy-benzyl ester] | < 0.5 | < 1 |  |  |  |
| CCN(CC)c1ccc(CCOC(=O)C2=C(C)NC(=S)NC2CO)cc1[N+](=O)[O-] (centres unmarked) [91″, 4-Hydroxymethyl-6-methyl-2-thioxo-1,2,3,4-tetrahydro-pyrimidine-5-carboxylic acid 2-(4-diethylamino-3-nitro-phenyl)-ethyl ester] | 0.7 | < 1 |  |  |  |
| CC1=C(C(=O)OCc2ccn(S(=O)(=O)c3ccc(C)cc3)c2)CNC(=S)N1 [Compound 230, 6-methyl-2-thioxo-1,2,3,4-tetrahydro-pyrimidine-5-carboxylic acid 1-(toluene-4-sulfonyl)-1H-pyrrol-3-ylmethyl ester] | < 0.4 | < 1 |  |  |  |
| COc1ccc(CCCOC(=O)C2=C(C)NC(=S)NC2CF)cc1 (centres unmarked) [43′, 4-fluoromethyl-6-methyl-2-thioxo-1,2,3,4-tetrahydro-pyrimidine-5-carboxylic acid 3-(4-methoxy-phenyl)-propyl ester] | 1.8 | 1 to 10 |  |  |  |
| CC1=C(C(=O)OCCc2cccc(Cl)c2)C(COC(=O)NCCN(C)C)NC(=S)N1 (centres unmarked) [86″, 4-(2-dimethylamino-ethylcarbamoyloxymethyl)-6-methyl-2-thioxo-1,2,3,4-tetrahydro-pyrimidine-5-carboxylic acid 2-(3-chloro-phenyl)-ethyl ester trifluoroacetate] |  |  |  | 0.7 | < 1 |
| CC1=C(C(=O)OCCc2cc(F)cc(F)c2)C(CF)NC(=S)N1 (centres unmarked) [85′, 4-fluoromethyl-6-methyl-2-thioxo-1,2,3,4-tetrahydro-pyrimidine-5-carboxylic acid 2-(3,5-difluoro-phenyl)-ethyl ester] | 2.7 | 1 to 10 |  |  |  |
| CCc1ccc(COC(=O)C2=C(C)NC(=S)NC2)o1 [Compound 264, 6-methyl-2-thioxo-1,2,3,4-tetrahydro-pyrimidine-5-carboxylic acid 5-ethyl-furan-2-ylmethyl ester] | 13 | 10 to 20 |  |  |  |
| CC1=C(C(=O)SCc2ccco2)C(CF)NC(=S)N1 (centres unmarked) [39′, 4-fluoromethyl-6-methyl-2-thioxo-1,2,3,4-tetrahydro-pyrimidine-5-carbothioic acid S-furan-2-ylmethyl ester] | 2.6 | 1 to 10 |  |  |  |
